Source: PubChem BioAssay AID2060497 (Molecular Pharmacology Branch, DTP, NCI, 2025)

System: 317291-083-R-J1-PDC complex spheroids, viability
Assay: Anticancer human tumor 317291-083-R-J1-PDC patient-derived soft tissue sarcoma cell line growth inhibition [GQUAD]
Details: for IC50: curve of first compound; for viability, T/C: stronger effect = lower value
Outline: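 Multi-cell-type spheroids of tumor cells with HUVEC and mesenchymal stem cells, treated with drug combinations. Concentrations descend in half-log steps from near clinical Cmax, or from 10 microM where Cmax is unknown; viability read-out.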

[1] = second compound 0.0316 µM, first compound 0.0316 µM
[2] = second compound 0.0316 µM, first compound 0.1 µM
[3] = second compound 0.0316 µM, first compound 0.316 µM
[4] = second compound 0.0316 µM, first compound 1 µM
[5] = second compound 0.0316 µM, first compound 3.16 µM
[6] = second compound 0.0316 µM, first compound 10 µM
[7] = second compound 0.1 µM, first compound 0.0316 µM
[8] = second compound 0.1 µM, first compound 0.1 µM
[9] = second compound 0.1 µM, first compound 0.316 µM
[10] = second compound 0.1 µM, first compound 1 µM
[11] = second compound 0.1 µM, first compound 3.16 µM
[12] = second compound 0.1 µM, first compound 10 µM
[13] = second compound 0.316 µM, first compound 0.0316 µM
[14] = second compound 0.316 µM, first compound 0.1 µM
[15] = second compound 0.316 µM, first compound 0.316 µM
[16] = second compound 0.316 µM, first compound 1 µM
[17] = second compound 0.316 µM, first compound 3.16 µM
[18] = second compound 0.316 µM, first compound 10 µM
[19] = second compound 1 µM, first compound 0.0316 µM
[20] = second compound 1 µM, first compound 0.1 µM
[21] = second compound 1 µM, first compound 0.316 µM
[22] = second compound 1 µM, first compound 1 µM
[23] = second compound 1 µM, first compound 3.16 µM
[24] = second compound 1 µM, first compound 10 µM
[25] = second compound 3.16 µM, first compound 0.0316 µM
[26] = second compound 3.16 µM, first compound 0.1 µM
[27] = second compound 3.16 µM, first compound 0.316 µM
[28] = second compound 3.16 µM, first compound 1 µM
[29] = second compound 3.16 µM, first compound 3.16 µM
[30] = second compound 3.16 µM, first compound 10 µM
[31] = second compound 10 µM, first compound 0.0316 µM
[32] = second compound 10 µM, first compound 0.1 µM
[33] = second compound 10 µM, first compound 0.316 µM
[34] = second compound 10 µM, first compound 1 µM
[35] = second compound 10 µM, first compound 3.16 µM
[36] = second compound 10 µM, first compound 10 µM
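Further: spheroids exposed to compounds for one week before readout.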
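Wherever viability, T/C is given: percent viability relative to DMSO vehicle wells taken as 100%.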

Question: With C#Cc1c(F)ccc2cc(O)cc(-c3ncc4c(N5CC6CCC(C5)N6)nc(OCC56CCCN5CC(F)C6)nc4c3F)c12 (stereo unspecified) + Cc1cnc(CNC(=O)c2c(=O)c3ccc(N4CCCN(C)CC4)nc3n3c2sc2ccccc23)cn1 as the compound, how does the IC50 (second compound 0.0316 µM) read?
Answer: > 10000 nM

Question: And the IC50 (second compound 0.1 µM)?
Answer: > 10000 nM

Question: What about the IC50 (second compound 0.316 µM) of the same compound?
Answer: < 31.6 nM

Question: And the IC50 (second compound 1 µM)?
Answer: < 31.6 nM

Question: And the IC50 (second compound 3.16 µM)?
Answer: < 31.6 nM

Question: And the IC50 (second compound 10 µM)?
Answer: < 31.6 nM

Question: What about the viability, T/C [1] of the same compound?
Answer: 107%

Question: What about the viability, T/C [2] of the same compound?
Answer: 104%

Question: And the viability, T/C [3]?
Answer: 99.9%

Question: What about the viability, T/C [4] of the same compound?
Answer: 105%

Question: And the viability, T/C [5]?
Answer: 90.6%

Question: What about the viability, T/C [6] of the same compound?
Answer: 66.5%

Question: And the viability, T/C [7]?
Answer: 89%

Question: And the viability, T/C [8]?
Answer: 74.4%

Question: And the viability, T/C [9]?
Answer: 57.7%

Question: And the viability, T/C [10]?
Answer: 87.2%

Question: What about the viability, T/C [11] of the same compound?
Answer: 76%

Question: What about the viability, T/C [12] of the same compound?
Answer: 80.9%

Question: What about the viability, T/C [13] of the same compound?
Answer: 45.3%

Question: What about the viability, T/C [14] of the same compound?
Answer: 52.1%

Question: And the viability, T/C [15]?
Answer: 53.3%

Question: And the viability, T/C [16]?
Answer: 36.7%

Question: And the viability, T/C [17]?
Answer: 51.7%

Question: And the viability, T/C [18]?
Answer: 51.8%

Question: What about the viability, T/C [19] of the same compound?
Answer: 31.4%

Question: What about the viability, T/C [20] of the same compound?
Answer: 36.5%

Question: What about the viability, T/C [21] of the same compound?
Answer: 38.9%

Question: And the viability, T/C [22]?
Answer: 24.8%

Question: And the viability, T/C [23]?
Answer: 27.4%

Question: And the viability, T/C [24]?
Answer: 21%

Question: And the viability, T/C [25]?
Answer: 14.7%

Question: And the viability, T/C [26]?
Answer: 18.3%

Question: What about the viability, T/C [27] of the same compound?
Answer: 31.5%

Question: What about the viability, T/C [28] of the same compound?
Answer: 14.1%

Question: And the viability, T/C [29]?
Answer: 22.6%

Question: And the viability, T/C [30]?
Answer: 19.1%

Question: What about the viability, T/C [31] of the same compound?
Answer: 38.2%

Question: What about the viability, T/C [32] of the same compound?
Answer: 22.9%

Question: What about the viability, T/C [33] of the same compound?
Answer: 10.5%

Question: And the viability, T/C [34]?
Answer: 13.7%

Question: What about the viability, T/C [35] of the same compound?
Answer: 11.1%

Question: And the viability, T/C [36]?
Answer: 3.98%

Question: For CC(=O)O[C@H]1C(=O)[C@@]2(C)[C@H]([C@H](OC(=O)c3ccccc3)[C@]3(O)C[C@H](OC(=O)[C@H](O)[C@@H](NC(=O)c4ccccc4)c4ccccc4)C(C)=C1C3(C)C)[C@]1(OC(C)=O)CO[C@@H]1C[C@@H]2O + Cc1cnc(CNC(=O)c2c(=O)c3ccc(N4CCCN(C)CC4)nc3n3c2sc2ccccc23)cn1, which IC50 (second compound 0.0316 µM) is on record?
Answer: < 31.6 nM

Question: And the IC50 (second compound 0.1 µM)?
Answer: < 31.6 nM

Question: What about the IC50 (second compound 0.316 µM) of the same compound?
Answer: < 31.6 nM

Question: And the IC50 (second compound 1 µM)?
Answer: < 31.6 nM

Question: What about the IC50 (second compound 3.16 µM) of the same compound?
Answer: < 31.6 nM

Question: What about the IC50 (second compound 10 µM) of the same compound?
Answer: < 31.6 nM

Question: What about the viability, T/C [1] of the same compound?
Answer: 29.2%

Question: And the viability, T/C [2]?
Answer: 14.9%

Question: What about the viability, T/C [3] of the same compound?
Answer: 8.69%

Question: What about the viability, T/C [4] of the same compound?
Answer: 9.72%

Question: What about the viability, T/C [5] of the same compound?
Answer: 11.3%

Question: And the viability, T/C [6]?
Answer: 9.08%

Question: And the viability, T/C [7]?
Answer: 25.4%

Question: And the viability, T/C [8]?
Answer: 8.37%

Question: And the viability, T/C [9]?
Answer: 11.1%

Question: What about the viability, T/C [10] of the same compound?
Answer: 8.92%

Question: And the viability, T/C [11]?
Answer: 10%

Question: And the viability, T/C [12]?
Answer: 10.2%

Question: And the viability, T/C [13]?
Answer: 17.5%

Question: What about the viability, T/C [14] of the same compound?
Answer: 12.3%

Question: And the viability, T/C [15]?
Answer: 8.21%

Question: What about the viability, T/C [16] of the same compound?
Answer: 9.2%

Question: What about the viability, T/C [17] of the same compound?
Answer: 7.36%

Question: And the viability, T/C [18]?
Answer: 8.93%

Question: And the viability, T/C [19]?
Answer: 17.8%

Question: And the viability, T/C [20]?
Answer: 10.5%

Question: What about the viability, T/C [21] of the same compound?
Answer: 8.43%

Question: And the viability, T/C [22]?
Answer: 11.4%

Question: What about the viability, T/C [23] of the same compound?
Answer: 8.77%

Question: What about the viability, T/C [24] of the same compound?
Answer: 9.02%

Question: What about the viability, T/C [25] of the same compound?
Answer: 14.3%

Question: What about the viability, T/C [26] of the same compound?
Answer: 7.98%

Question: And the viability, T/C [27]?
Answer: 11.2%

Question: What about the viability, T/C [28] of the same compound?
Answer: 5.02%

Question: And the viability, T/C [29]?
Answer: 14.6%

Question: And the viability, T/C [30]?
Answer: 5.59%

Question: What about the viability, T/C [31] of the same compound?
Answer: 0.22%

Question: And the viability, T/C [32]?
Answer: 11.5%

Question: What about the viability, T/C [33] of the same compound?
Answer: 7.59%

Question: And the viability, T/C [34]?
Answer: 1.49%

Question: What about the viability, T/C [35] of the same compound?
Answer: 0.95%

Question: And the viability, T/C [36]?
Answer: 0.58%

Question: Which results are given for CCCS(=O)(=O)Nc1ccc(F)c(C(=O)c2c[nH]c3ncc(-c4ccc(Cl)cc4)cc23)c1F + Cc1cnc(CNC(=O)c2c(=O)c3ccc(N4CCCN(C)CC4)nc3n3c2sc2ccccc23)cn1?
Answer: IC50 (second compound 0.0316 µM): 4020 nM; IC50 (second compound 0.1 µM): 3920 nM; IC50 (second compound 0.316 µM): 179 nM; IC50 (second compound 1 µM): < 31.6 nM; IC50 (second compound 3.16 µM): < 31.6 nM; IC50 (second compound 10 µM): < 31.6 nM; viability, T/C [1]: 89.2%; viability, T/C [2]: 100%; viability, T/C [3]: 99.8%; viability, T/C [4]: 91.3%; viability, T/C [5]: 60.6%; viability, T/C [6]: 9.94%; viability, T/C [7]: 64.3%; viability, T/C [8]: 56.2%; viability, T/C [9]: 67.1%; viability, T/C [10]: 49.9%; viability, T/C [11]: 59.4%; viability, T/C [12]: 9.77%; viability, T/C [13]: 43%; viability, T/C [14]: 68.4%; viability, T/C [15]: 43.6%; viability, T/C [16]: 38.1%; viability, T/C [17]: 37.5%; viability, T/C [18]: 16.5%; viability, T/C [19]: 55.6%; viability, T/C [20]: 23.6%; viability, T/C [21]: 43.1%; viability, T/C [22]: 18.8%; viability, T/C [23]: 19.7%; viability, T/C [24]: 5.79%; viability, T/C [25]: 10.6%; viability, T/C [26]: 11.7%; viability, T/C [27]: 10.6%; viability, T/C [28]: 11.8%; viability, T/C [29]: 21.4%; viability, T/C [30]: 0.18%; viability, T/C [31]: 10.2%; viability, T/C [32]: 6.4%; viability, T/C [33]: 24.3%; viability, T/C [34]: 8.2%; viability, T/C [35]: 16.7%; viability, T/C [36]: 8.36%
